Data as given in patent US8916592B2, “Malononitrile compounds” (Merial Limited, priority 2005, dated 2014).

How the values were obtained:
Assay type in all cases: in vivo
[1] = test system: Mediterranean Fruitfly (Ceratitis capitata); assay: Activity against Mediterranean Fruitfly (eggs sprayed in microtiterplates); conditions: 144 h, 6 days, untreated controls 0% mortality
Protocol: The active compounds were formulated in 1:3 DMSO:water. 50 to 80 eggs were placed into microtiterplates filled with 0.5% agar-agar and 14% diet in water. The eggs were sprayed with 5 μl of the test solution, the plates were sealed with pierced foils and kept at 27-29° C. and 75-85% humidity under fluorescent light for 6 days. Mortality was assessed on the baswas of the agility of the hatched larvae. Tests were replicated 2 times.

[2] = test system: Boll Weevil (Anthonomus grandis); assay: Activity against Boll Weevil (eggs sprayed in microtiterplates); conditions: 3 to 5 days, untreated controls 0% mortality
Protocol: The active compounds were formulated in 1:3 DMSO:water. 10 to 15 eggs were placed into microtiterplates filled with 2% agar-agar in water and 300 ppm formaline. The eggs were sprayed with 20 μl of the test solution, the plates were sealed with pierced foils and kept at 24-26° C. and 75-85% humidity with a day/night cycle for 3 to 5 days. Mortality was assessed on the basis of the remaining unhatched eggs or larvae on the agar surface and/or quantity and depth of the digging channels caused by the hatched larvae. Tests were replicated 2 times.

[3] = test system: Vetch Aphid (Megoura viciae); assay: Activity against Vetch Aphid (sprayed bean leaf disks); conditions: foliar, 144 h, adult aphids, 6 days, untreated controls 0% mortality
Protocol: The active compounds were formulated in 1:3 DMSO:water. Bean leaf disks were placed into microtiterplates filled with 0.8% agar-agar and 2.5 ppm OPUS™. The leaf disks were sprayed with 2.5 μl of the test solution and 5 to 8 adult aphids were placed into the microtiterplates which were then closed and kept at 22-24° C. and 35-45% under fluorescent light for 6 days. Mortality was assessed on the basis of vital, reproduced aphids. Tests were replicated 2 times.

[4] = test system: Brown Planthopper (Nilaparvata lugens); assay: Activity against Brown Planthopper (sprayed rice seedlings); conditions: 300 ppm, 10 adults, recorded after 24, 72 and 120 hours
Protocol: The active compounds were formulated in 50:50 acetone:water. Potted rice seedlings were sprayed with 10 ml test solution, air dried, placed in cages and inoculated with 10 adults. Percent mortality was recorded after 24, 72 and 120 hours.

SMILES | mortality at 2500 ppm [1] [%] | mortality at 2500 ppm [2] [%] | mortality at 2500 ppm [3] [%] | mortality [4]
N#CC(C#N)(CSC(F)(F)F)Cc1ccc(Cl)c(Cl)c1 [Compound I-1, 2-(3,4-dichloro-benzyl)-2-trifluoromethylsulfanylmethyl-malononitrile] | > 75 | > 75 |  | 
N#CC(C#N)(CCSC(F)(F)F)Cc1ccc(Cl)c(Cl)c1 [Compound I-7, 2-(3,4-Dichloro-benzyl)-2-(2-trifluoromethylsulfanyl-ethyl)-malononitrile] | > 75 | > 75 | > 75 | 
N#CC(C#N)(CC[S+]([O-])C(F)(F)F)Cc1ccc(Cl)c(Cl)c1 (stereo not shown) [Compound I-15, 2-(3,4-Dichlorobenzyl)-2-(2-trifluoromethanesulfinyl-ethyl)-malononitrile] | > 75 | > 75 |  | 
N#CC(C#N)(CCS(=O)(=O)C(F)(F)F)Cc1ccc(Cl)c(Cl)c1 [Compound I-19, 2-(3,4-Dichlorobenzyl)-2-(2-trifluoromethanesulfonyl-ethyl)-malononitrile] | > 75 | > 75 |  | 
CC(C)(C)c1cc(CC(C#N)(C#N)CCSC(F)(F)F)on1 [Compound I-35] |  |  |  | over 90%
